Laboratory results as given in patent US6370478B1, “Methods for drug interaction prediction using biological response profiles” (Rosetta Inpharmatics, Inc., priority 1998, dated 2002).

Legend:
wild type yeast cells = conditions: 10 micrograms/ml; Gari et al., 1997; cited from earlier work
[1] = system: Yeast (Saccharomyces cerevisiae, Strain YPH499) mRNA transcripts; assay: Yeast mRNA response profiles measured with DNA microarrays (transcript measurement); format: cell-based
Experimental: Experimental methods were described in Marton et al., 1998, Drug Target Validation And Identification of Secondary Drug Target Effects Using DNA Microarrays, NATURE-MEDICINE 4:1293-301, incorporated herein by reference for all purposes. Dose response curves are plotted only for about 50 genes with the largest responses. […] In this case, any concentration near or above about 1 μg/ml would be informative, and the choice could be refined based on knowledge of the significance of the set of genes that responds at the higher concentrations.
The following experimental methods were used for all the examples. Specific experimental design is described by the examples and their accompanying figures. The specific protocol was also described in Marton et al., 1998, Drug Target Validation And Identification of Secondary Drug Target Effects Using DNA Microarrays, NATURE-MEDICINE 4:1293-301.
Yeast (Saccharomyces cerevisiae, Strain YPH499, see, Sikorski and Hieter, 1989, A system of shuttle vectors and yeast host strains designated for efficient manipulation of DNA in Saccharomyces cerevisiae, Genetics 122:19-27) cells were grown in YAPD at 30° C. to an OD600 of 1.0 (±0.2), and total RNA prepared by breaking cells in phenol/chloroform and 0.1 % SDS by standard procedures (Ausubel et al., 1995, Current Protocols in Molecular Biology, Greene Publishing and Wiley-Interscience, New York, Ch. 13). Poly(A)^+ RNA was selected by affinity chromatography on oligo-dT cellulose (New England Biolabs) essentially as described in Sambrook et al. (Molecular Cloning—A Laboratory Manual (2nd Ed.), Vol. 1, Cold Spring Harbor Laboratory, Cold Spring Harbor, N.Y., 1989). […]
Fluorescently-labeled cDNAs (2-6 μg) are resuspended in 4×SSC plus 1 μg/μl tRNA as carrier and filtered using […] filters (Millipore, Bedford, Mass.). […] Microarrays were scanned with a fluorescence laser-scanning device as previously described (Schena et al., 1995, Science 270:467-470; Schena et al., 1995, Proc. Natl. Acad. Sci. USA 93:[…]) and the results (including the positions of perturbations) are recorded.

C[C@H]1c2cccc(O)c2C(=O)C2=C(O)[C@]3(O)C(=O)C(C(N)=O)=C(O)[C@@H](N(C)C)[C@@H]3[C@@H](O)[C@@H]21 [doxycycline]
effect on the growth rate (wild type yeast cells): no significant effect

Clc1ccccc1C(c1ccccc1)(c1ccccc1)n1ccnc1 [Clotrimazole]
relationship of the response profiles of Clotrimazole and Cyclosporin A ([1]; FIG. 4, overlap with effects of opposite sign): anti-correlation

C=CC[C@@H]1/C=C(\C)C[C@H](C)C[C@H](OC)[C@H]2O[C@@](O)(C(=O)C(=O)N3CCCC[C@H]3C(=O)O[C@H](/C(C)=C/[C@@H]3CC[C@@H](O)[C@H](OC)C3)[C@H](C)[C@@H](O)CC1=O)[C@H](C)C[C@@H]2OC [FK506]
concentration at which genes mediated by the primary target (calcineurin) reach saturation response ([1]; FIG. 1, dose response of about 50 genes with the largest responses): about 1 μg/ml
correlation coefficient between the two drug response profiles ([1]; FK506 (1.6 μg/ml) vs Cyclosporin A (30 μg/ml), genes with significant up and down regulations at the 95% confidence level, FIG. 3): 0.86
